How the values were obtained:
Format in all cases: cell-based
MR = molecular target: T1, MR (Homo sapiens, UniProt P08235); assay: Functional assay of mineralocorticoid receptor antagonism (mammalian two hybrid luciferase reporter, 293T cells); conditions: antagonism of aldosterone (0.4 nM)-induced MR activity
T1 construct: expressed in transfected cells; host or cells: 293T cells (ATCC)
T1 sequence (P08235 672-984): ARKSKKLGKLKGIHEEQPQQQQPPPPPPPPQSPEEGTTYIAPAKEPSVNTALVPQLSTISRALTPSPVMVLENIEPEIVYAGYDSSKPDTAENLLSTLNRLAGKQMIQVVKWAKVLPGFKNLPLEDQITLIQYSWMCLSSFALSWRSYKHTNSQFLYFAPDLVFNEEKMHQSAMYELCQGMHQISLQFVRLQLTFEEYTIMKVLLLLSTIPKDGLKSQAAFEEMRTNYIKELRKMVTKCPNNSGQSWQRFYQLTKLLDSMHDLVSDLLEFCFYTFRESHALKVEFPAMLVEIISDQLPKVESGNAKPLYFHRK
Description: The MR antagonist activity of the compounds is determined in a mammalian two hybrid reporter system. The N-terminus of MR (MR-NT, sequence coding amino acid 1-597) is fused to the activation domain of the VP16 gene. The ligand binding domain of MR (MR-LBD, sequence encoding amino acid 672-984) is fused to the DNA binding domain of the yeast Gal4 gene. The MR gene is cloned from a human kidney cDNA library with PCR.
The assay is performed in 384 well plates. Briefly, 293T cells (ATCC) are transfected with expression vectors for Gal4-MR-LBD and VP16-MR NT, and a luciferase reporter vector containing Gal4 binding sequence (pG5-Luc). Cells are plated in 384 well plates immediately after transfection (approximately 3×10^4 cells/well in 50 μl medium). The medium is supplemented with 3% charcoal-dextran treated fetal bovine serum (Hyclone). Twenty four hours after transfection, compounds prepared in DMSO are transferred to the cells. The cells are then stimulated with 0.4 nM final concentration of aldosterone (Acros) and incubated at 37° C. for another 24 hours before the luciferase activity is assayed with 20 μl of Bright-Glo (Promega) using a luminometer (CLIPR). The expression of luciferase is used as an indicator of aldosterone-induced MR trans-activation. Each compound is tested in duplicate with 12-concentration titration. IC50 values (defined as the concentration of test compound required to antagonize 50% of aldosterone-induced MR activity) are determined from the dose-response curve.

AR = molecular target: T2, AR (Homo sapiens, UniProt P10275, Q868H); assay: Functional assay of androgen receptor antagonism (MMTV luciferase reporter, MDA-kb2 cells); conditions: antagonism of dihydrotestosterone (0.3 nM)-induced AR activity
T2 construct: endogenous in cells; host or cells: MDA-kb2 cells (ATCC)
T2 sequence (P10275 1-920 Q868H): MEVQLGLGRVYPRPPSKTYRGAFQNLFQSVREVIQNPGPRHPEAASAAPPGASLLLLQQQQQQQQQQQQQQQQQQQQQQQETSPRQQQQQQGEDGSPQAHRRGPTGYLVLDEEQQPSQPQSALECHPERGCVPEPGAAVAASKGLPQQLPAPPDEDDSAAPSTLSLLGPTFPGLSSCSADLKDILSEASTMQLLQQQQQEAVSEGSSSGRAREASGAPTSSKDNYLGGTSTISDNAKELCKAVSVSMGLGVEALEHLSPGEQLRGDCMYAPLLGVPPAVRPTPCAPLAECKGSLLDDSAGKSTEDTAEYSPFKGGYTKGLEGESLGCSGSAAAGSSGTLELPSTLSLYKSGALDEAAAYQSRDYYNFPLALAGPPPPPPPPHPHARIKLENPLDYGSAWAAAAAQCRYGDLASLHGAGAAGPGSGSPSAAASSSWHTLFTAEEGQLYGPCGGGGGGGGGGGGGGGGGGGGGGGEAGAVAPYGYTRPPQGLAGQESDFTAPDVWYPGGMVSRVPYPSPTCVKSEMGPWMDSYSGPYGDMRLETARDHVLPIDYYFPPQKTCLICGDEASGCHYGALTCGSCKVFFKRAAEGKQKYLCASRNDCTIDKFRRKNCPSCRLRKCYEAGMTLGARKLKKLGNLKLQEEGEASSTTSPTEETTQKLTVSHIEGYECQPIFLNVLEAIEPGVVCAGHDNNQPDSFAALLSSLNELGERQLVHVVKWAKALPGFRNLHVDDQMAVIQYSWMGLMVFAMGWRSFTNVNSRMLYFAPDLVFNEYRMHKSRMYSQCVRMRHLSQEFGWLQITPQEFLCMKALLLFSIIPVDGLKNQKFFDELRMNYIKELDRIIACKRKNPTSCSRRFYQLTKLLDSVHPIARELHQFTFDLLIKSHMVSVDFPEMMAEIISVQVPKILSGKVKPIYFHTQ
Description: The AR antagonist activity of the compounds is determined with the MDA-Kb2 cell line (ATCC), which stably expresses the MMTV luciferase reporter. The MMTV promoter is a mouse mammary tumor virus promoter that contains androgen receptor response elements. […] Upon stimulation with AR ligands, such as dihydrotestosterone, the MMTV luciferase reporter can be activated.
The assay is performed in 384 well plates. Briefly, MDA-kb2 cells are plated in 384 well plates at a density of approximately 2.4×10^4 cells/well in 50 μl medium. The medium is supplemented with 5% charcoal-dextran treated fetal bovine serum (Hyclone). Twenty four hours later, compounds prepared in DMSO are transferred to the cells. The cells are then stimulated with 0.3 nM final concentration of dihydrotestosterone (Sigma) and incubated at 37° C. for another 24 hours before the luciferase activity is assayed with 20 μl of Bright-Glo (Promega) using a luminometer (CLIPR). The expression of luciferase is used as an indicator of dihydrotestosterone-induced AR trans-activation. Each compound is tested in duplicate with a 12-concentration titration. IC50 values (defined as the concentration of test compound required to antagonize 50% of dihydrotestosterone-induced AR activity) are determined from the dose-response curve.

PR = molecular target: T3, PR (Homo sapiens, UniProt P06401); assay: Functional assay of progesterone receptor antagonism (progesterone-induced alkaline phosphatase, T-47D cells); conditions: antagonism of progesterone (3 nM)-induced PR activity
T3 construct: endogenous in cells; host or cells: T-47D cells (ATCC)
T3 sequence (P06401 1-933): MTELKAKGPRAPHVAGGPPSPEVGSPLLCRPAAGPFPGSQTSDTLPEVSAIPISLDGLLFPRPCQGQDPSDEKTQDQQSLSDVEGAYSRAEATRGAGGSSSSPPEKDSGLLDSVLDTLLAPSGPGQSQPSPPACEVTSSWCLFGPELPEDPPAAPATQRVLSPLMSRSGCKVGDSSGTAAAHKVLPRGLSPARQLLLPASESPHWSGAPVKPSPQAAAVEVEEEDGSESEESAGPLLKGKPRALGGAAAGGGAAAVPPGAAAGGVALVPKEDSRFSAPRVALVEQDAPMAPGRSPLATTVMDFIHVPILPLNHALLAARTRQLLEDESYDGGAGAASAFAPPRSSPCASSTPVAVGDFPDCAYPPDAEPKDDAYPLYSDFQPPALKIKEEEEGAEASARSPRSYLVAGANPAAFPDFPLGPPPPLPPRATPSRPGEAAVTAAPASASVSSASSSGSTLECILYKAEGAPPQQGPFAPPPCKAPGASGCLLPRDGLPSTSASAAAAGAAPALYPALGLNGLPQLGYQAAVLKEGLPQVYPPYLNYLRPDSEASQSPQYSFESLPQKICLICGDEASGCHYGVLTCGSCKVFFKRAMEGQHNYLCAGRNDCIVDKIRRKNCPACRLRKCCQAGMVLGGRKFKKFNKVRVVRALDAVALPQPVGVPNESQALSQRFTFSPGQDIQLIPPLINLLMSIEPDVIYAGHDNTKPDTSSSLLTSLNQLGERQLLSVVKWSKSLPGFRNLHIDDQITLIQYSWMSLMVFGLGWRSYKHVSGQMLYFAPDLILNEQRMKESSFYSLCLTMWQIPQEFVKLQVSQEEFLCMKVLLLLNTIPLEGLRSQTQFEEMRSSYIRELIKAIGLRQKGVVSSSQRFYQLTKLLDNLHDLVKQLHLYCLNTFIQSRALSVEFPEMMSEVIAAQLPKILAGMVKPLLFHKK
Description: The PR antagonist activity of the compounds is determined by progesterone-induced alkaline phosphatase activity in the T-47D cell line (ATCC). In the T-47D breast cancer cells, progesterone specifically induces de novo synthesis of a membrane-associated alkaline phosphatase enzyme in a time and dose-dependent manner (Di Lorenzo et al., Cancer Research, 51: 4470-4475 (1991)). The alkaline phosphatase enzymatic activity can be measured with a chemiluminescent substrate, such as CSPD® (Applied Biosystems).
The assay is performed in 384 well plates. Briefly, T-47D cells are plated in 384 well plates at a density of approximately 2.5×10^4 cells/well in 50 μl medium supplemented with 10% fetal bovine serum. Twenty four hours later, the medium is aspirated. New medium that is free of phenol red and serum is added to the cells. Compounds prepared in DMSO are transferred to the cells. The cells are then stimulated with 3 nM final concentration of progesterone (Sigma) and incubated at 37° C. for another 24 hours before the alkaline phosphatase is assayed with 25 μl of CSPD® (Applied Biosystems) using a luminometer (CLIPR). The expression of alkaline phosphatase is used as an indicator of progesterone-induced PR trans-activation. Each compound is tested in duplicate with a 12-concentration titration. […]

GR = molecular target: T4, GR (Homo sapiens, UniProt P04150); assay: Functional assay of glucocorticoid receptor antagonism (Gal4-GR-LBD luciferase reporter, COS-7 cells); conditions: antagonism of dexamethasone (10 nM)-induced GR activity
T4 construct: expressed in transfected cells; host or cells: COS-7 cells (ATCC)
T4 sequence (P04150 541-778 isoform P04150-3): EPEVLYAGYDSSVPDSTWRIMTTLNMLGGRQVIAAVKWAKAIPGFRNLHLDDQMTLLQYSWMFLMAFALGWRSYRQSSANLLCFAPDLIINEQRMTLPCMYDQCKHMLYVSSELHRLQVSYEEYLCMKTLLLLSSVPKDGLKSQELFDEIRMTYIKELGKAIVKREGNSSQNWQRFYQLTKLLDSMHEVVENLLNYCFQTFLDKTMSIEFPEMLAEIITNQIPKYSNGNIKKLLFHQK
Description: The GR antagonist activity of the compounds is determined in a mammalian two hybrid reporter system. The ligand binding domain of GR (GR-LBD, sequence encoding amino acid 541-778) is fused to the DNA binding domain of the yeast Gal4 gene. The GR gene is cloned from a human lung cDNA library with PCR.
The assay is performed in 384 well plates: COS-7 cells (ATCC) are transfected with expression vectors for Gal-4-GR-LBD and a luciferase reporter vector containing Gal4 binding sequence (pG5-Luc). Cells are plated in 384 well plates immediately after transfection (approximately 8000 cells/well in 50 μl medium). The medium is supplemented with 3% charcoal-dextran treated fetal bovine serum (Hyclone). Twenty four hours after transfection, compounds prepared in DMSO are transferred to the cells. The cells are then stimulated with 10 nM final concentration of dexamethasone (Sigma) and incubated at 37° C. for another 24 hours before the luciferase activity is assayed with 20 μl of Bright-Glo (Promega) using a luminometer (CLIPR). The expression of luciferase is used as an indicator of dexamethasone-induced GR trans-activation. Each compound is tested in duplicate with a 12-concentration titration. IC50 values (defined as the concentration of test compound required to antagonize 50% of dexamethasone-induced GR activity) are determined from the dose-response curve.

IC50 (MR) [nM] | IC50 (AR) [nM] | IC50 (PR) [nM] | IC50 (GR) [nM] | SMILES
8 | 2600 | – | – | COc1ccccc1NC(=O)C1=C(C)NC(SC)=C(C#N)C1c1ccccc1Br (stereo not shown) [Compound 14, 2-methylthio-3-cyano-4-(2-bromophenyl)-5-(2-methoxyphenyl)carbamoyl-6-methyl-1,4-dihydro-pyridine]
41 | 2860 | 478 | 6850 | COC(=O)C1=C(C)NC(C)=C(C#N)C1c1ccc(F)cc1Cl (stereo not shown) [Example 207, 5-methyl-2,6-dimethyl-3-cyano-4-(2-chloro-4-fluorophenyl)-1,4-dihydro-pyridine-5-carboxylate]
9 | 39800 | 2300 | 3100 | COCC1=C(C(=O)OC(C)C)C(c2ccc(F)cc2Br)C(C#N)=C(C)N1 (stereo not shown) [Compound 96, 5-isopropyl-2-methyl-3-cyano-4-(2-bromo-4-fluorophenyl)-6-(methoxymethyl)-1,4-dihydro-pyridine-5-carboxylate]

Source: patent US20090298872A1, “COMPOUNDS AND COMPOSITIONS AS MODULATORS OF STEROIDAL RECEPTORS AND CALCIUM CHANNEL ACTIVITIES” (IRM LLC, priority 2004, published 2009)
